# Assay results taken from paper PMC3951181, “Rosamines Targeting the Cancer Oxidative Phosphorylation Pathway” (PLoS ONE, 2014).
# Columns and labels:
# HSC-2 cells = assay: JC-1 analysis of mitochondrial membrane potential; assay type: cell-based, human; conditions: for cell population with mitochondrial transmembrane potential loss: 0.1 µM, untreated control about 8% at 8 h
# Procedure: The mitochondrial membrane potential was measured based on the potential–dependent accumulation of the cationic JC-1 dye which results in a shift of fluorescence emission from green (∼525 nm) to red (∼590 nm) due to the formation of J-aggregates. Therefore, mitochondrial depolarization is indicated by a decrease in the red/green fluorescence intensity ratio. Briefly, cells were collected and suspended in 1 ml warm media at approximately 1×10^6 cell/ml. In a control tube, 1 µl of 50 mM CCCP was added and incubated at 37°C for 5 min. Then, 10 µl of 200 µM JC-1 was added into the cells and incubated at 37°C for 30 min. Cells were washed twice with warm PBS, resuspended in 500 µl of PBS and analyzed on a FACSCalibur flow cytometer using 488 nm excitation with 530/30 nm and 585/42 nm bandpass emission filters.
# Meanwhile, the mitochondrial transmembrane potential loss was more prominent in HSC-2 cells treated with 5 at 0.1 µM. Approximately 21% (P<0.05) of the cell population was affected in the first hour and the percentage increased drastically to 34% in 8 h. For the untreated control cells, the population of depolarized cells at 8 h remained at approximately 8%. […] CCCP is an oxidative phosphorylation decoupling agent which acts as a positive control for the experiment.
# [1] = test system: panel of solid human tumor cell lines (MCF-7, HCT-116, HSC-2, HK-1); assay: MTT cell viability assay, panel of cancer cell lines; assay type: cell-based; conditions: mean over MCF-7, HCT-116, HSC-2, HK-1
# Procedure: (§1) MCF-7 breast carcinoma and HCT-116 colon carcinoma cell lines were obtained from American Tissue Culture Collection (Virginia, USA) and maintained in RPMI 1640 medium supplemented with 10% FBS. HSC-2 oral cavity human squamous carcinoma cells were obtained from Health Science Research Resources Bank (Japan). HK-1, a previously characterized nasopharyngeal squamous carcinoma cells is a gift by Prof. Wong Y.C. from the University of Hong Kong. Both cell lines were grown in MEM medium supplemented with 10% FBS. For cell viability assay, cells at 4000 cells/well in 80 µl of medium were inoculated in 96-well plates and were allowed to adhere overnight. Cells were then treated with each compound at concentrations ranging from 0.001–10 µM giving the final volume of 100 µl in each well. At the end of incubation period, 15 µl of 5.0 mg/ml MTT in phosphate buffered saline (PBS) was added and incubated for 4 h. Medium and excessive MTT were aspirated and the resulting formazan was solubilized with 100 µl of dimethyl sulfoxide. Absorbance was read at 570 nm with SpectraMax M4 microplate spectrophotometer (Molecular Devices, CA).
# (§2) The in vitro antitumor activity of rosamines was assessed using a 48 h endpoint cell viability methylthiazolyldiphenyl-tetrazolium bromide (MTT) assay against a panel of solid human tumor cell lines including breast carcinoma (MCF-7), colon carcinoma (HCT-116), oral squamous cell carcinoma (HSC-2) and nasopharyngeal carcinoma (HK-1). […] Within the halide series, cytotoxicities increase in the following order 4>3>[…] (Cl>Br>I), although not statistically significant (P>0.05).
# HCT-116 colon carcinoma = assay: MTT cell viability assay, 48 h; assay type: cell-based; conditions: Homo sapiens, 48 h post-treatment, mean ± SD
# Procedure: as §1, §2
# [2] = test system: HSC-2 oral cavity human squamous carcinoma cells; assay: MTT cell viability assay, 48 h; assay type: cell-based; conditions: 48 h post-treatment, mean ± SD
# Procedure: as §1, §2
# MCF-7 breast carcinoma = assay: MTT cell viability assay, 48 h; assay type: cell-based; conditions: Homo sapiens, MCF7, 48 h post-treatment, mean ± SD
# Procedure: as §1, §2
# [3] = test system: HK-1 nasopharyngeal squamous carcinoma cells; assay: MTT cell viability assay, 48 h; assay type: cell-based; conditions: Homo sapiens, 48 h post-treatment, mean ± SD
# Procedure: as §1, §2
# [4] = Solubility in aqueous media for treatment stock; assay type: physicochemical; conditions: reconstitution of treatment stock at 10 mM
# Procedure: Compounds 3, 4 and 6 were synthesized to test if meso-replacement with 4-bromobenzene 3, 4-chlorobenzene 4 or 2-furyl 6 groups would affect the anticancer activity. In addition, the 4-iodobenzene 7 or 2-thiofuran meso substituents 8 and unsymmetrical piperidine/[…] amine substituents were synthesized and investigated. Rosamines 1–4 and 7 were not appreciably water-soluble so they were reconstituted in DMSO at 10 mM as treatment stock.
# [5] = test system: 4T1 mouse mammary carcinoma; assay: In vivo antitumor efficacy, tumor allograft; set-up: species or system female BALB/c mice; conditions: for median day for 4T1 tumor in attaining two-doubling growth (RTV = 4): control approximately 9 days; for terminal percent test/control (% T/C): end of experiment (day 14)
# Procedure: All animal experiments were conducted in accordance with protocols reviewed and approved by Dr. Haji Azizuddin Bin Haji Kamaruddin, Laboratory Animal Centre (LAC) Animal Care and Use Committee of Faculty of Medicine, University of Malaya (reference number FAR/14/07/2010/LSH). Female BALB/c mice aged between 6–8 weeks with a minimum weight of 17 g were maintained in a controlled environment of 12 h light-dark cycles with free access to food (standard pellet diet purchased from Altromin International, Lage, Germany) and purified water. Female mice were used because the hormonal environment essential for development of implanted 4TI mouse mammary carcinoma would be present.
# (§3) Tumor allografts were initiated by subcutaneous injection of 5×10^5 4T1 mouse mammary carcinoma in 0.1 ml RPMI 1640 media into the inguinal mammary fat-pads of mice. Tumor growth was monitored and treatments were initiated when tumors reached volume of approximately 200 mm^3. To assess the tumor growth inhibition, 4T1 tumor bearing mice were randomized into groups with at least eight animals per group. Compound 5 was prepared at 0.3 mg/ml in normal saline and treatment was administered intravenously at 5 mg/kg on staging day or 3 mg/kg every other day for six treatments (q2dx6). For control group, normal saline was given. The animal weights and tumor volume were measured three times weekly for 14 d. The tumor volume was calculated using the equation: (length×width^2)/2 and relative tumor volume (RTV) was calculated for every tumor volume at any given time (VT) against the tumor volume at staging day (V0) using the equation: VT/V0. The RTV – time profile for each group was plotted and tumor growth delay in attaining a specified number of doublings compared to control was determined, [19]. Results were expressed as median ±95% confidence interval (n = 8).
# Complex I = assay: Immunocapture ELISA microplate enzyme activity assay; assay type: biochemical; conditions: mouse liver mitochondria extract; 0.01–10 µM
# [6] = Body weight and adverse effects in treated mice; assay type: in vivo
# Procedure: as §3, with “Compound 5 was prepared at 0.3 mg/ml in normal saline and treatment was administered intravenously at 5 mg/kg on staging day or 3 mg/kg every other day for six treatments (q2dx6).” left out
# Meanwhile, the terminal percent test/control (% T/C) values calculated at the end of experiment were 72% and 66% in mice receiving 5 mg/kg and 3 mg/kg (q2d×6) respectively. The antitumor efficacy of 5 is minimal as the % T/C attained after treatment had ended is not ≤40% activity, the minimal rating for a compound to be considered active. […]
# [7] = test system: NCI-60 human tumor cell lines; assay: NCI-60 screen, sulforhodamine B, whole panel; assay type: cell-based; conditions: overall value for the NCI-60 cell lines screen; for GI50: Homo sapiens
# Procedure: NCI-60 cell panel screening was performed by the NCI/National Institutes of Health developmental therapeutics program (Bethesda, US). This platform allows the determination of growth inhibitory profiles of test compounds on 60 different human cancer cell lines, representing leukemia, melanoma and cancers of the lung, colon, central nervous system, ovary, breast, prostate, and renal subpanel. Sulforhodamine B assay was used to assess the cytotoxicity of test agents in a panel of 60 cell lines. Briefly, the human tumor cell lines of the cancer screening panel were grown in RPMI 1640 medium containing 5% FBS and 2 mM L-glutamine. For a typical screening experiment, cells were inoculated into 96 well microtiter plates in 100 µl at plating densities depending on the doubling time of individual cell lines. After cell inoculation, the microtiter plates are incubated at 37°C, 5% CO2 and 100% relative humidity for 24 h. Following incubation, aliquots of 100 µl of compound at different dilutions were added to the appropriate microtiter wells and were further incubated for 48 h. At the assay end-point, cells were fixed with trichloroacetic acid followed by Sulforhodamine B staining for cellular protein content. Sulforhodamine B absorbance was read at a wavelength of 515 nm as a measurement of cell density.
# ATP synthase = ATP synthase (Mus musculus, UniProt P56480+Q03265); assay: Immunocapture ELISA microplate enzyme activity assay; conditions: read-out: IC50 ATP synthase activity; mouse liver mitochondria extract; 0.01–10 µM
# [8] = test system: panel of solid human tumor cell lines (MCF-7, HCT-116, HSC-2, HK-1); set-up: method as in PMID 19387338; conditions: anticancer activity in cellular assays; previous study; cited from earlier work
# Complex II = Complex II (Mus musculus, UniProt Q8K2B3+Q9CQA3+Q9CXV1+Q9CZB0); assay: Immunocapture ELISA microplate enzyme activity assay; assay type: biochemical; conditions: mouse liver mitochondria extract; 0.01–10 µM
# Complex IV = Complex IV (Mus musculus, UniProt P00397+P00405+P00416); assay: as above; conditions: read-out: IC50 Complex IV activity; mouse liver mitochondria extract; 0.01–10 µM
# Chain of Complex II (Q8K2B3 43-664): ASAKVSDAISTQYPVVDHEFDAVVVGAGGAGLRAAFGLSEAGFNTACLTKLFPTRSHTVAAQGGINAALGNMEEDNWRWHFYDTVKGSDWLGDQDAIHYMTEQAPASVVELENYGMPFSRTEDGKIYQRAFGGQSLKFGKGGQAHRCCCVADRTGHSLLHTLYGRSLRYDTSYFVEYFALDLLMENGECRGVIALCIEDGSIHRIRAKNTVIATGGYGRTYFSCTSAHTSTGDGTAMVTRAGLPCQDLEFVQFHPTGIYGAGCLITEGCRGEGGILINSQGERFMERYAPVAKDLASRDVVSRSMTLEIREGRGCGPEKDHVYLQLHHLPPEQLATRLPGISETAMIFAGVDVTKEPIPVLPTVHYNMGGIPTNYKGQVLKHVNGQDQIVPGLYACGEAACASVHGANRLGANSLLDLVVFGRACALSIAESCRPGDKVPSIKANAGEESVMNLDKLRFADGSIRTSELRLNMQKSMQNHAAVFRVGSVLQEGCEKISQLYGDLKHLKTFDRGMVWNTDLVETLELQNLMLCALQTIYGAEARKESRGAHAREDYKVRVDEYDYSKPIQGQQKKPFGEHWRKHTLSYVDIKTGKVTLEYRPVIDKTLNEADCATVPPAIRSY
# Chain of Complex II (Q9CQA3 31-282): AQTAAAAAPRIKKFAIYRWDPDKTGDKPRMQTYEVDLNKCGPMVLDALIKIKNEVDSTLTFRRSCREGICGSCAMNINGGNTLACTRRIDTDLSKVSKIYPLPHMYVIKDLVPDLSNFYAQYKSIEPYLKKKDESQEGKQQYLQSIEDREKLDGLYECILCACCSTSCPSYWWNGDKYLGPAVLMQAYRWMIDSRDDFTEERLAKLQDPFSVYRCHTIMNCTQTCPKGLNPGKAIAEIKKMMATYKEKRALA
# Chain of Complex II (Q9CZB0 30-169): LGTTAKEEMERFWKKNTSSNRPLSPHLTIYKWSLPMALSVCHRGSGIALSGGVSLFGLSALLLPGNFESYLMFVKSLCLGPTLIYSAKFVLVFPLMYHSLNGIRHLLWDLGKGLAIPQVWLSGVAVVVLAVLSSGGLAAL
# Chain of Complex II (Q9CXV1 57-159): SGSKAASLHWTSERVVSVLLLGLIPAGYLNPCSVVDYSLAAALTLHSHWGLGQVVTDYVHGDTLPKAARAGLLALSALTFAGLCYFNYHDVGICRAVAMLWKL
Structure (SMILES),IC50 [1] [nM],IC50 (HCT-116 colon carcinoma) [nM],IC50 [2] [nM],IC50 (MCF-7 breast carcinoma) [nM],IC50 [3] [nM],water solubility [4],further results
"N#CC(C#N)=NNc1cccc(Cl)c1 [CCCP, Carbonyl cyanide 3-chlorophenylhydrazone, reference compound]",,,,,,,"cell population with loss of membrane potential (HSC-2 cells; 5 µM for 5 min, positive control): 70%"
c1csc(-c2c3ccc(=[N+]4CCCCC4)cc-3oc3cc(N4CCCCC4)ccc23)c1 [Rosamine 5],110,70 ± 20,90 ± 10,180 ± 20,100,readily solubilized in aqueous media,"median day for 4T1 tumor in attaining two-doubling growth (RTV = 4) ([5]; 3 mg/kg i.v. q2d×6): ~13 days; terminal percent test/control (% T/C) ([5]; 3 mg/kg i.v. q2d×6): 66%; two-doubling tumor growth delay (T-C)/C ([5]; 5 mg/kg single bolus i.v.): 22%; median day for 4T1 tumor in attaining two-doubling growth (RTV = 4) ([5]; 5 mg/kg single bolus i.v.): ~11 days; terminal percent test/control (% T/C) ([5]; 5 mg/kg single bolus i.v.): 72%; IC50 (Complex I): > 10000 nM; body weight loss ([6]; 4T1 tumor bearing mice, 5 mg/kg or 3 mg/kg (q2d×6) i.v., 14 d): ≤ 15%; adverse effects ([6]; mice, 10 mg/kg dose): unacceptable adverse effects such as weight loss, diarrhea and sudden death; GI50 [7]: 100 nM; Log10GI50 [7]: −7; IC50 (ATP synthase): 3000 ± 800 nM; cell population with mitochondrial transmembrane potential loss (HSC-2 cells; 8 h): 34%; cell population with mitochondrial transmembrane potential loss (HSC-2 cells; within 1 h after treatment): Approximately 21%; fold more active than phenyl substituted compound 1 [8]: 5 fold; IC50 (Complex II): 9600 ± 100 nM; IC50 (Complex IV): > 10000 nM"
"Brc1ccc(-c2c3ccc(=[N+]4CCCCC4)cc-3oc3cc(N4CCCCC4)ccc23)cc1 [Rosamine 3, 4-Bromobenzene Rosamine]",280,300 ± 80,190 ± 110,290 ± 40,340,,
c1ccc(-c2c3ccc(=[N+]4CCCCC4)cc-3oc3cc(N4CCCCC4)ccc23)cc1 [Rosamine 1],630,600 ± 410,90,1200 ± 700,610 ± 70,,
Ic1ccc(-c2c3ccc(=[N+]4CCCCC4)cc-3oc3cc(N4CCCCC4)ccc23)cc1 [Rosamine 2],410,390 ± 70,350 ± 50,590 ± 120,290 ± 30,,IC50 (Complex I): > 10000 nM; IC50 (ATP synthase): 3900 ± 300 nM; cell population with mitochondrial transmembrane potential loss (HSC-2 cells; 8 h): 19%; cell population with mitochondrial transmembrane potential loss (HSC-2 cells; within 1 h after treatment): 9%; fold more active than phenyl substituted compound 1 [8]: 5 fold; IC50 Complex II activity (Complex II): did not reach 50% up to maximum concentrations studied; IC50 (Complex IV): > 10000 nM

# Continued, in another order:
IC50 [1] [nM],IC50 (HCT-116 colon carcinoma) [nM],IC50 [2] [nM],IC50 (MCF-7 breast carcinoma) [nM],IC50 [3] [nM],water solubility [4],Structure (SMILES),further results
290,240 ± 70,220 ± 100,260 ± 70,440 ± 10,,"Ic1ccc(-c2c3ccc(=[N+]4CCOCC4)cc-3oc3cc(N4CCCCC4)ccc23)cc1 [Rosamine 7, Unsymmetrical 4-Iodophenyl Rosamine]",
200,100 ± 30,90,310 ± 140,310 ± 80,readily solubilized in aqueous media,"c1coc(-c2c3ccc(=[N+]4CCCCC4)cc-3oc3cc(N4CCCCC4)ccc23)c1 [Rosamine 6, Furan Rosamine]",
250,70 ± 20,220 ± 110,170 ± 100,530,readily solubilized in aqueous media,"c1csc(-c2c3ccc(=[N+]4CCOCC4)cc-3oc3cc(N4CCCCC4)ccc23)c1 [Rosamine 8, Unsymmetrical Thiofuryl Rosamine]",
180,220 ± 140,90 ± 10,150 ± 40,250 ± 10,,"Clc1ccc(-c2c3ccc(=[N+]4CCCCC4)cc-3oc3cc(N4CCCCC4)ccc23)cc1 [Rosamine 4, 4-Chlorobenzene Rosamine]",GI50 [7]: 100 nM; Log10GI50 [7]: −7
